Measured values from patent publication EP1500391A1, “Therapeutic use of bicycloheptane derivatives” (NEURO3D, priority 2003, dated 2005).
Like-named read-outs stand apart in the source and are kept apart here.

Legend:
[1] = molecular target: human dopamine D3 receptor (Homo sapiens, UniProt P35462); assay: D3 radioligand binding assay ([3H]spiperone); conditions: read-out: %inhibition D3
Experimental: Nonspecific binding was determined in the presence of 10 µM (+)butaclamol. Following incubation, the samples were filtered rapidly under vacuum through glass fiber filters (GF/B, Packard) presoaked with 0.3% PEI and rinsed several times with ice-cold 50 mM Tris-HCl using a 96-sample cell harvester (Unifilter, Packard). The filters were dried then counted for radioactivity in a scintillation counter (Topcount, Packard) using a scintillation cocktail (Microscint 0, Packard). The specific ligand binding to the receptor is defined as the difference between the total binding and the non specific binding determined in the presence of an excess of unlabelled ligand. The results are expressed as a percentage of control specific binding and as a percentage inhibition of control specific binding obtained in the presence of the compounds.

[2] = molecular target: human dopamine D2S receptor (Homo sapiens, UniProt P14416); assay: D2 radioligand binding assay ([3H]spiperone); conditions: read-out: %inhibition D2
[3] = molecular target: T1, human 5-HT2C receptor (Homo sapiens, UniProt P28335); assay: 5HT2c radioligand binding assay ([3H]mesulergine); conditions: inhibition of control specific binding; at 1µM (concentration printed only in head of Cpd A); transfected CHO cells
T1 construct: expressed in transfected cells; host or cells: CHO cells
T1 sequence (P28335 33-458): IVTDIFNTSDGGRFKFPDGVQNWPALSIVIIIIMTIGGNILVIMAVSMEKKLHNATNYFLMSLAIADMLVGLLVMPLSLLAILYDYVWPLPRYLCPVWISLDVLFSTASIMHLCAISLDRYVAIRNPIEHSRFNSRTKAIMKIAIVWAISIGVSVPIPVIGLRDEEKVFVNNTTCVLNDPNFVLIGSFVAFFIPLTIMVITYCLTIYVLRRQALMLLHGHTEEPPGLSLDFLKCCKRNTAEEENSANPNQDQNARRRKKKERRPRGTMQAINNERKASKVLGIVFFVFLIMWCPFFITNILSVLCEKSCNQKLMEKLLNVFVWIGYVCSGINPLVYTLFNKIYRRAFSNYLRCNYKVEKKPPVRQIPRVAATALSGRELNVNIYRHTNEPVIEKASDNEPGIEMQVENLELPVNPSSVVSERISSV

[4] = tested on: non-selective sigma receptor; assay: σ radioligand binding assay ([3H]DTG); conditions: inhibition of control specific binding; at 1µM (concentration printed only in head of Cpd A); rat cerebral cortex
[5] = molecular target: T2, human 5-HT2A receptor (Homo sapiens, UniProt P28223); assay: 5HT2a radioligand binding assay ([3H]ketanserin); conditions: inhibition of control specific binding; at 1µM (concentration printed only in head of Cpd A); human recombinant
T2 construct: expressed in transfected cells; host or cells: HEK-293 cells

[6] = molecular target: human 5-HT6 receptor (Homo sapiens, UniProt P50406); assay: 5HT6 radioligand binding assay ([3H] LSD); conditions: read-out: %inhibition 5HT6
Experimental: 5HT6 ASSAY : Evaluation of the affinity of compounds for the human 5-HT6 receptor in transfected HEK 293 cells determined in a radioligand binding assay. Cell membrane homogenates (15-20 µg protein) were incubated for 60 min at 37°C with 2 nM [^3H] LSD in the absence or presence of the test compound in a buffer containing 50 mM Tris-HCl (pH 7.4), 10 mM MgCl2 and 0.5 mM EDTA. Nonspecific binding was determined in the presence of 100 µM 5-HT. Following incubation, the samples were filtered rapidly under vacuum through glass fiber filters (GF/B, Packard) presoaked with 0.3% PEI and rinsed several times with ice-cold 50 mM Tris-HCl using a 96-sample cell harvester (Unifilter, Packard). The filters were dried then counted for radioactivity in a scintillation counter (Topcount, Packard) using a scintillation cocktail (Microscint 0, Packard).
The specific ligand binding to the receptor is defined as the difference between the total binding and the non specific binding determined in the presence of an excess of unlabelled ligand. The results are expressed as a percentage of control specific binding and as a percentage inhibition of control specific binding obtained in the presence of the compounds.

[7] = inhibition of control specific binding, at 1µM (concentration printed only in head of Cpd A), transfected CHO cells

Chain of human dopamine D2S receptor (P14416 1-414 isoform P14416-2): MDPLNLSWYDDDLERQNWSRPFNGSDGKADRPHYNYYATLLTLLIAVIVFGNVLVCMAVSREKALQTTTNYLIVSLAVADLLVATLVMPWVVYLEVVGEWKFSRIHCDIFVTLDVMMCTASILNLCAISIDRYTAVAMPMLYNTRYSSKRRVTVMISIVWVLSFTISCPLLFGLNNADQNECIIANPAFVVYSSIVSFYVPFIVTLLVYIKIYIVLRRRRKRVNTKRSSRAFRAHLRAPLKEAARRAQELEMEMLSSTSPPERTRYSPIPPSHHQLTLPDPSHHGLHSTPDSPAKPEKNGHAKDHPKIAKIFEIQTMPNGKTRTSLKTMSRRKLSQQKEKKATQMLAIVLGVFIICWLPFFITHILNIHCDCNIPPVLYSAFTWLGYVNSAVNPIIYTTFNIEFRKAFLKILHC
Chain of human 5-HT6 receptor (P50406 whole entry): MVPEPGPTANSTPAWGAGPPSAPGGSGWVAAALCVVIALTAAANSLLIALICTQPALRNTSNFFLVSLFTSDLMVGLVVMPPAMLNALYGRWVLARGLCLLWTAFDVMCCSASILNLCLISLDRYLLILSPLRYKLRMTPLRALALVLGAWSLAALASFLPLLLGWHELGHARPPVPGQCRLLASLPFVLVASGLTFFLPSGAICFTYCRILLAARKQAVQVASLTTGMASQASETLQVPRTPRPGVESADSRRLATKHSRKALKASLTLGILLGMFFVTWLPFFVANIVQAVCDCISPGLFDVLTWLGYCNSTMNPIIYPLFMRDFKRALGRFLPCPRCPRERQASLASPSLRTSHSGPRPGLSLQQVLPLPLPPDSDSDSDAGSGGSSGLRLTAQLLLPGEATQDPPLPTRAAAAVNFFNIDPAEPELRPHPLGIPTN
Chain of human dopamine D3 receptor (P35462 whole entry): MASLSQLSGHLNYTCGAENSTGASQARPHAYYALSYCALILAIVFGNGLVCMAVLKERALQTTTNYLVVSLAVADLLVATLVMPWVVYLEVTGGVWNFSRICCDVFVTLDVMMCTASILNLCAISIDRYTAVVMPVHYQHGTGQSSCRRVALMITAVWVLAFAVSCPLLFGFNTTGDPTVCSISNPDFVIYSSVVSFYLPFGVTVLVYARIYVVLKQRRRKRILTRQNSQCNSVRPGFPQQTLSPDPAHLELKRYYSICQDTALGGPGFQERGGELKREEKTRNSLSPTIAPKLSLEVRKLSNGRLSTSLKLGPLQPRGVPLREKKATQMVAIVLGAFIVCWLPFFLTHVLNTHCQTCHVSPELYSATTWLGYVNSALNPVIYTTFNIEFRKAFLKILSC
T2 sequence (P28223 whole entry): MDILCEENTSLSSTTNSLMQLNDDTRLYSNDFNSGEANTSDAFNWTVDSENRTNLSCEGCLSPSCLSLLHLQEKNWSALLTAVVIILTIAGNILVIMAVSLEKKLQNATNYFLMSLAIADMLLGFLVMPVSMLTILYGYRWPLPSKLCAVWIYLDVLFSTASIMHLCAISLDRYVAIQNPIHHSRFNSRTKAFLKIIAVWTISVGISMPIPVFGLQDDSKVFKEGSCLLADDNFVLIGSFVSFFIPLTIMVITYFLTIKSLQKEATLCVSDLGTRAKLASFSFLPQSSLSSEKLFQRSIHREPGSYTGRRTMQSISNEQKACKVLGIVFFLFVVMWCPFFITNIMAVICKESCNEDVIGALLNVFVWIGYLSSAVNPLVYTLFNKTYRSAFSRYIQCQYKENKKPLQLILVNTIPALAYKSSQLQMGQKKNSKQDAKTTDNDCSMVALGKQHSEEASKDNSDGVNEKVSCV

## CN(C)CCO[C@]1(c2ccccc2)C[C@H]2CC[C@]1(C)C2(C)C [Cpd B, (1R,2S,4R)-(-)-2-[N,N-(dimethylaminoethoxy)]-2-phenyl-1,7,7-trimethyl-bicyclo[2.2.1]heptane]
[1]
  inhibition at 1 µM: 89%
[2]
  inhibition at 1 µM: 74%
[3]
  inhibition at 1 µM: 99%
[4]
  %inhibition σ: 72%
[5]
  inhibition at 1 µM: 99%
[6]
  inhibition at 1 µM: 88%

## CN(C)CCO[C@@]1(c2ccccc2)C[C@@H]2CC[C@@]1(C)C2(C)C [Cpd A, (1S,2R,4S)-(+)-2-[N,N-(dimethylaminoethoxy)]-2-phenyl-1,7,7-trimethyl-bicyclo[2.2.1]heptane]
[1]
  inhibition at 1 µM: 32%
[2]
  inhibition at 1 µM: 29%
[3]
  inhibition at 1 µM: 79%
[4]
  %inhibition σ: 56%
[5]
  inhibition at 1 µM: 93%
[6]
  inhibition at 1 µM: 44%

## CNCCO[C@]1(c2ccccc2)C[C@H]2CC[C@]1(C)C2(C)C [Cpd D, (1R,2S,4R)-(-)-2-methylaminoethoxy-2-phenyl-1,7,7-trimethyl-bicyclo[2.2.1]heptane]
[1]; [7]
  inhibition at 1 µM: 81%
[2]; [7]
  inhibition at 1 µM: 57%
[3]
  inhibition at 1 µM: 97%
[5]
  inhibition at 1 µM: 98%
[6]
  inhibition at 1 µM: 89%

## CNCCO[C@@]1(c2ccccc2)C[C@@H]2CC[C@@]1(C)C2(C)C [Cpd C, (1S,2R,4S)-(+)-2-methylaminoethoxy-2-phenyl-1,7,7-trimethyl-bicyclo[2.2.1]heptane]
[1]; [7]
  inhibition at 1 µM: 24%
[2]; [7]
  inhibition at 1 µM: 10%
[3]
  inhibition at 1 µM: 65%
[5]
  inhibition at 1 µM: 89%
[6]
  inhibition at 1 µM: 36%
